How the values were obtained:
AhR = molecular target: T1, AhR (Homo sapiens, UniProt P35869); assay: AhR agonism luciferase reporter gene assay in transfected HepG2 cells; type: cell-based; details: 16 h, ratio of treatment group to blank
T1 construct: expressed in transfected cells; host or cells: HepG2
T1 sequence (P35869 11-848): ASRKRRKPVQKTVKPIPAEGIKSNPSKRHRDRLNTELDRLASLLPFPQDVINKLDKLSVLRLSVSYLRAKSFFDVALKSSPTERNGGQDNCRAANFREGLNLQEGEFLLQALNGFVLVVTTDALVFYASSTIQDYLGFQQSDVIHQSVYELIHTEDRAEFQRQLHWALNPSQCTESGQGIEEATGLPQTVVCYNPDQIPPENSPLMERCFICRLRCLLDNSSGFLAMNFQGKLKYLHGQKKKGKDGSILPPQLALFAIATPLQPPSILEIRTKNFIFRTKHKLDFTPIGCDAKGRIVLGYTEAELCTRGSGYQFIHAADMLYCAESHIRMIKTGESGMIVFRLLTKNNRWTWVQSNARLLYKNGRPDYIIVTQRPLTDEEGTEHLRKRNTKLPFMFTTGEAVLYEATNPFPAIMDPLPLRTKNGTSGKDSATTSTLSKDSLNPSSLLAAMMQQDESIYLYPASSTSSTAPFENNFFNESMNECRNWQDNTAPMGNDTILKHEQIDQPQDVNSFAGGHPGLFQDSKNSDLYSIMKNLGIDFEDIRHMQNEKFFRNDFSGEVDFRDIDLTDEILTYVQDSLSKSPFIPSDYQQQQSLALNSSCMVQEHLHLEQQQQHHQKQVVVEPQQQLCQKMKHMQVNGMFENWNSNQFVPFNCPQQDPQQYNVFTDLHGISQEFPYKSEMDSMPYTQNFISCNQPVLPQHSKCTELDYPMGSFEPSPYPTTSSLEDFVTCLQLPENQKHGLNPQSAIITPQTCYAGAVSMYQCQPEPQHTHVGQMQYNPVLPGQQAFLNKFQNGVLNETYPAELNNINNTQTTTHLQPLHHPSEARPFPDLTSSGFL
Method: When the cell confluence reached 80%, the culture medium was replaced with a fresh one, and the transfection working solution was added for transfection overnight. The formula of the working solution is as follows: 1 mL of Opti-MEM+7.5 μg of pCMV-AHR+7.5 μg of pTK-3×DRE-Luc+30 μL of lipo6000. • (2) Cell plating: The transfected cells were digested, prepared into a cell suspension at a concentration of 3×10^5 cells/mL, and then plated on a 96-well plate at 100 µL/well for adherent culture overnight. • (3) Formulation
The prepared drug-containing culture media and a blank culture medium were added to the 96-well plate described above at 100 μL/well.

[1] = Ointment diffusion test, ex vivo rabbit skin; type: in vitro ADME; details: ointments: 2# 1.2 wt %, 6# 1.2 wt %, benvitimod 1.0 wt %, 32° C.
Method: (§1) Test compounds: compound 2 #ointment, 1.2 wt %; compound 6 #ointment, 1.2 wt %; benvitimod ointment, 1.0 wt %;
• (1) Preparation of ex vivo rabbit skin • (2) Preparation of receiving liquid: 100 mL of polyethylene glycol 400 solution was brought to a final volume of 250 mL with normal saline. The mixture was mixed well and stored at 4° C. Before each permeation in the receiving compartment, the system was preheated to 32° C. • (3) In vitro transdermal test: A drug transdermal diffusion apparatus was used to fix the processed rabbit skin between the supply and receiving compartments, with the stratum corneum facing the supply compartment. A constant temperature water bath circulation at 32° C. was maintained. The system was equilibrated for 30 min. Upon each replacement of the receiving liquid, the air at the lower layer was exhausted, and the liquid droplets on the skin surface were removed with paper. 0.5 g of the ointment was evenly smeared in the supply compartment. The system was stirred with a magnetic stirring at a rotation speed of 600 r/min. At 0.5, 1, 2, 3, 4, 5, 7, 9, 12, and 24 h, 1 mL of sample liquid was taken out from the receiving compartment and transferred into a liquid phase vial, and simultaneously, an equal amount of fresh receiving liquid at the same temperature was added. The liquid phase detection was conducted to calculate the drug permeation rate.

DSS-induced colitis = DSS-induced colitis mouse model; type: in vivo, C57BL/6 mice; details: 10 mg/kg intragastric, DSS 2.5% 8 days; for effect on colon length: day 9
Method: • (1) Animals: 40 C57BL/6 mice, male, aged 8 weeks, 22-24 g • (2) Materials: […] Biomedicals, USA, Cat. No. […] Tween 80; Wahaha purified water • (3) Procedures: […] The solution was inspected daily and replaced with fresh DSS solution when necessary. On day one after modeling, the treatment was given. […] On day 9, the mice were sacrificed, and the blood and colon were collected. The colon length, occult blood in the cecal contents, and other conditions were also recorded. Test compound formulation: 1.00 mg of compound powder was dissolved in 20 μL of DMSO completely. Then, 20 μL of Tween 80 was added, and the mixture was well mixed. 0.96 mL of Wahaha purified water was added, and the mixture was well mixed to give a 1 mg/mL solution, which was administered at a dose of 0.1 mL/10 g (body weight). Solvent: 20 μL of DMSO, 20 μL of Tween 80, and 0.96 mL of Wahaha purified water were mixed well (used in the modeling group).

[2] = Drug permeation rate test, in vitro diffusion through semipermeable membrane; type: in vitro ADME; details: ointments: 2# 1.2 wt %, 6# 1.2 wt %, benvitimod 1.0 wt %, 32° C.
Method: as §1
[drawing 90] • (1) Preparation of semipermeable membrane: The semipermeable membrane, which had been prepared in advance, was taken out from the refrigerator; • (2) Preparation of receiving liquid: 100 mL of polyethylene glycol 400 solution was brought to a final volume of 250 mL with normal saline. The mixture was mixed well and stored at 4° C. Before each permeation in the receiving compartment, the system was preheated to 32° C.; • (3) In vitro diffusion test: A drug transdermal diffusion apparatus was used to fix the processed semipermeable membrane between the supply and receiving compartments. A constant temperature water bath circulation at 32° C. was maintained. The system was equilibrated for 30 min. Upon each replacement of the receiving liquid, the air at the lower layer was exhausted. About 0.5 g of the ointment was evenly smeared in the supply compartment. The system was stirred with a magnetic stirring at a rotation speed of 600 r/min. At 0.5, 1, 2, 4, 6, and 24 h, 1 mL of sample liquid was taken out from the receiving compartment, and simultaneously, an equal amount of fresh receiving liquid at the same temperature was added;
The sampling time points were 0.5, 1, 2, 4, 6, and 24 h, and 1 mL of sample was directly transferred into a liquid phase vial. Simultaneously, an equal amount of fresh receiving liquid at the same temperature was added. The liquid phase detection was conducted to calculate the drug permeation rate.

## Oc1cc(/C=C/c2ccc(F)cc2)cc(O)c1C1CCCCC1 [Compound 6, (E)-2-cyclohexyl-5-(4-fluorostyryl)-1,3-benzenediol]
AhR; drug concentration 0.1 μM
  AhR receptor agonistic fold: 6.6 ± 0.1 fold
AhR; drug concentration 1 μM
  AhR receptor agonistic fold: 25.9 ± 0.4 fold
[1]
  24-hour drug permeation rate (rank order): benvitimod >2 #>6 #
DSS-induced colitis
  disease activity indicator (body weight change and hematochezia): a more significant effect
  effect on colon length: superior to that in the reference 1 #benvitimod group
[2]
  24-hour drug permeation rate (rank order): benvitimod >2 #>6 #

## CC(C)c1c(O)cc(/C=C/c2ccccc2)cc1O [Reference 1#, Benvitimod, reference compound]
AhR; drug concentration 0.1 μM
  AhR receptor agonistic fold: 3.2 ± 1.2 fold
AhR; drug concentration 1 μM
  AhR receptor agonistic fold: 10.6 ± 1.0 fold
[1]
  24-hour drug permeation rate (rank order): benvitimod >2 #>6 #
DSS-induced colitis
  disease activity indicator (body weight change and hematochezia): good therapeutic effects
  effect on colon length: the conditions were improved
[2]
  24-hour drug permeation rate (rank order): benvitimod >2 #>6 #
